The test deals with T1, aromatic hydrocarbon receptor (AhR) (Homo sapiens, UniProt P35869).
T1 construct: His-tagged recombinant human AhR (MST); recombinant human AhR (SPR)
T1 sequence (P35869 11-848): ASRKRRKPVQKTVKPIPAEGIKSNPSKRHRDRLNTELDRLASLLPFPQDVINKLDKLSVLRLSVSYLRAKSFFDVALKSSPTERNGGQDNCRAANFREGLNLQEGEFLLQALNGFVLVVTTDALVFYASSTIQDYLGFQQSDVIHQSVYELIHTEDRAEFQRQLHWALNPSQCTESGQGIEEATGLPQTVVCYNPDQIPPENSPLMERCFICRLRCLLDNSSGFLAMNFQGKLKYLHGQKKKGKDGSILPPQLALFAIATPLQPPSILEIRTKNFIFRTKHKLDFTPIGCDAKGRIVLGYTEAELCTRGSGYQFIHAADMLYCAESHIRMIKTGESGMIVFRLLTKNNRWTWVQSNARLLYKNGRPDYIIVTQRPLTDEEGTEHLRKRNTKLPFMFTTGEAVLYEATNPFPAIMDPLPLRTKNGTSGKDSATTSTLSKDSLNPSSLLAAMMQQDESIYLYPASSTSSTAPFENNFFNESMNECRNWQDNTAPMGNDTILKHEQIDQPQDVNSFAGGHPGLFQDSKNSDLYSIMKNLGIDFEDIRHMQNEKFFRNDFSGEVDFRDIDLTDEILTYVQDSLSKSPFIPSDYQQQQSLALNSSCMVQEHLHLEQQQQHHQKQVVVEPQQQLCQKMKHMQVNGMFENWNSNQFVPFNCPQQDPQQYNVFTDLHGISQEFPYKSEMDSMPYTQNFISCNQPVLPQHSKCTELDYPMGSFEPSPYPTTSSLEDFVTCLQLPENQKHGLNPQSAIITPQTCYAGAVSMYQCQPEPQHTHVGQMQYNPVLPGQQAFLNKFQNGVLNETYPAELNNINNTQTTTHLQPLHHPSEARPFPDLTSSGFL
Nature of the test: SPR (Biacore, CM5 chip, immobilized AhR); also MST, KD […]. It is filed as binding. In general terms: Surface plasmon resonance follows binding to a sensor surface in real time, without labels.

One may read the Kd as the constant that tells how readily two partners part at equilibrium. Low values mean tighter binding, high ones weaker binding. Take `O=C(CCc1ccc(O)cc1)c1c(O)cc(O[C@@H]2O[C@H](CO)[C@@H](O)[C@H](O)[C@H]2O)cc1O` [TLB, Trilobatin]: binding was put at a Kd of 10.3 µM.
